According to PubChem BioAssay (NCI):
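Cultured in 96-well plates, cells were exposed to test compound for 48 hours across five concentrations. Definition used: TGI = concentration required for complete inhibition of growth.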

What was measured:
Assay in all cases: NCI-60 cell line screen, 48 h
UO-31 renal = system: UO-31 renal
TK-10 renal = system: TK-10 renal
U251 CNS = system: U251 CNS
M14 melanoma = system: M14 melanoma
MDA-N = system: MDA-N
NCI-H226 lung = system: NCI-H226 lung
T-47D breast = system: T-47D breast
IGROV1 ovarian = system: IGROV1 ovarian
CAKI-1 renal = system: CAKI-1 renal
OVCAR-5 ovarian = system: OVCAR-5 ovarian
MALME-3M melanoma = system: MALME-3M melanoma
SK-MEL-5 melanoma = system: SK-MEL-5 melanoma
PC-3 prostate = system: PC-3 prostate
HCT-116 colon = system: HCT-116 colon
UACC-257 melanoma = system: UACC-257 melanoma
OVCAR-8 ovarian = system: OVCAR-8 ovarian
EKVX NSCLC = system: EKVX NSCLC
SK-MEL-28 melanoma = system: SK-MEL-28 melanoma
NCI-H522 lung = system: NCI-H522 lung
SR leukemia = system: SR leukemia
KM12 colon = system: KM12 colon
UACC-62 melanoma = system: UACC-62 melanoma
SK-OV-3 ovarian = system: SK-OV-3 ovarian
COLO 205 colon = system: COLO 205 colon
RPMI-8226 leukemia = system: RPMI-8226 leukemia
A549 NSCLC = system: A549 NSCLC
NCI/ADR-RES ovarian = system: NCI/ADR-RES ovarian
SF-295 CNS = system: SF-295 CNS
MCF7 breast = system: MCF7 breast
DU-145 prostate = system: DU-145 prostate
MOLT-4 leukemia = system: MOLT-4 leukemia
MDA-MB-231 breast = system: MDA-MB-231 breast
786-0 renal = system: 786-0 renal
HT29 colon = system: HT29 colon
SN12C renal = system: SN12C renal
HCC-2998 colon = system: HCC-2998 colon
ACHN renal = system: ACHN renal
SW-620 colon = system: SW-620 colon
HOP-62 NSCLC = system: HOP-62 NSCLC
SF-268 CNS = system: SF-268 CNS
OVCAR-3 ovarian = system: OVCAR-3 ovarian
SNB-19 CNS = system: SNB-19 CNS
LOX IMVI melanoma = system: LOX IMVI melanoma
SNB-75 CNS = system: SNB-75 CNS
NCI-H23 lung = system: NCI-H23 lung
HCT-15 colon = system: HCT-15 colon
RXF 393 renal = system: RXF 393 renal
SF-539 CNS = system: SF-539 CNS

Structure (SMILES): CC#CC(O)(C(=O)OC1CCC2CCC1N2C)C1CCCC1 (stereo not drawn)
- TGI (UO-31 renal): > 100 µM
- TGI (TK-10 renal): > 100 µM
- TGI (U251 CNS): > 10 µM
- TGI (M14 melanoma): > 100 µM
- TGI (MDA-N): > 100 µM
- TGI (NCI-H226 lung): > 100 µM
- TGI (T-47D breast): > 100 µM
- TGI (IGROV1 ovarian): > 100 µM
- TGI (CAKI-1 renal): > 100 µM
- TGI (OVCAR-5 ovarian): > 10 µM
- TGI (MALME-3M melanoma): > 100 µM
- TGI (SK-MEL-5 melanoma): > 100 µM
- TGI (PC-3 prostate): > 100 µM
- TGI (HCT-116 colon): > 100 µM
- TGI (UACC-257 melanoma): > 100 µM
- TGI (OVCAR-8 ovarian): > 100 µM
- TGI (EKVX NSCLC): > 100 µM
- TGI (SK-MEL-28 melanoma): > 100 µM
- TGI (NCI-H522 lung): > 100 µM
- TGI (SR leukemia): > 100 µM
- TGI (KM12 colon): > 100 µM
- TGI (UACC-62 melanoma): > 100 µM
- TGI (SK-OV-3 ovarian): > 100 µM
- TGI (COLO 205 colon): > 100 µM
- TGI (RPMI-8226 leukemia): > 100 µM
- TGI (A549 NSCLC): > 100 µM
- TGI (NCI/ADR-RES ovarian): > 10 µM
- TGI (SF-295 CNS): > 100 µM
- TGI (MCF7 breast): > 100 µM
- TGI (DU-145 prostate): > 100 µM
- TGI (MOLT-4 leukemia): > 100 µM
- TGI (MDA-MB-231 breast): > 100 µM
- TGI (786-0 renal): > 100 µM
- TGI (HT29 colon): > 100 µM
- TGI (SN12C renal): > 100 µM
- TGI (HCC-2998 colon): > 100 µM
- TGI (ACHN renal): > 10 µM
- TGI (SW-620 colon): > 100 µM
- TGI (HOP-62 NSCLC): > 100 µM
- TGI (SF-268 CNS): > 100 µM
- TGI (OVCAR-3 ovarian): > 100 µM
- TGI (SNB-19 CNS): > 100 µM
- TGI (LOX IMVI melanoma): > 100 µM
- TGI (SNB-75 CNS): > 100 µM
- TGI (NCI-H23 lung): > 100 µM
- TGI (HCT-15 colon): > 100 µM
- TGI (RXF 393 renal): > 100 µM
- TGI (SF-539 CNS): > 100 µM
